# Target: T1, PXR (Homo sapiens, UniProt O75469)
# T1 construct: host or cells: DPX2 (HepG2 stably transfected)
# T1 sequence (O75469 1-434): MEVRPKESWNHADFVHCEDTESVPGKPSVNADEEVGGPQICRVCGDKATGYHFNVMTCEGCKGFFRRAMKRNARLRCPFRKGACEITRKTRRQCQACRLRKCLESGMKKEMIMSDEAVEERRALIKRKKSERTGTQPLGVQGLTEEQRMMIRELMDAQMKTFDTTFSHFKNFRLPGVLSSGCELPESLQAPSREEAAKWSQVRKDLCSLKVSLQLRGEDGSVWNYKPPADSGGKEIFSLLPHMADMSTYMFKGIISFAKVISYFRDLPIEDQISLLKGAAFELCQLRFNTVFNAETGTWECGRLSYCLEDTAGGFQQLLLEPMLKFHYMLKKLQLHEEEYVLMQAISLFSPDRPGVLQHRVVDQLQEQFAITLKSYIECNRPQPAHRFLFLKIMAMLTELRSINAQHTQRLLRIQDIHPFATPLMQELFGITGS
# Assay: PXR activation in stably transfected DPX2 cells (CYP3A4 promoter-driven luciferase reporter)
# Assay type: cell-based
# Conditions: 24 or 48 hours, test concentration not given
# Procedure: The purpose of this study was to evaluate the potential of the compounds of the present disclosure and the comparative compound (WO2023183850A1, compound of formula A) to activate PXR in vitro, thereby inducing drug-metabolizing enzymes.
# DPX2 cells (HepG2 cell line stably transfected with PXR and a CYP3A4 promoter-driven luciferase reporter gene) were purchased from Puracyp Inc (Carlsbad, CA). Fetal bovine serum was purchased from Acantor.
# • 1) DPX2 cells were cultured in medium containing 10% fetal bovine serum (FBS). • 2) DPX2 cells were cultured in a T-75 flask in a cell culture incubator at 37°C with 5% CO2 and 95% relative humidity. The cells were subjected to trypsinization when they reached 80% to 90% confluence. • 3) The medium was aspirated from the T-75 flask, and the cells were rinsed with 10 mL of PBS. After removing PBS, 3 to 5 mL of trypsin was added. The flask was incubated at 37°C for approximately 5 minutes or until cell detachment and floating were observed. […] After 24 or 48 hours of cell treatment, quantification of PXR activation was performed. • 8) CellTiter Fluor™ Cell Viability Assay Kit and One-Glo Luciferase Assay Kit were equilibrated to room temperature. […] 25 µL of the prepared cell viability assay system was gently added to each well, followed by incubation for 30 minutes in the cell culture incubator at 37°C. • 10) The 384-well plate was removed from the cell culture incubator, and fluorescence of individual wells was measured using a microplate reader in fluorescence mode with excitation at 400 nm and emission at 505 nm. Subsequently, 25 µL of the prepared luciferase assay system was gently added to each well, followed by vortexing and incubation at room temperature for 5 minutes, and luminescence of individual wells was measured using a microplate reader.
# Cell viability percentage was calculated using the following formula: Cell viability (%) = Isample / Ivehicle × 100, where Isample is the mean fluorescence intensity of treated wells; Ivehicle is the mean fluorescence intensity of cells treated with 0.1% DMSO. […]
row,Structure (SMILES),Fold activation
1,CCc1nc2n(-c3nnc(C(F)F)s3)c3cc(S(=O)(=O)NC4(C)CC4)cc(N4C[C@H](C)N[C@@H](C)C4)c3n2n1 [Compound 065R],1.45
2,C[C@H]1CN(c2cc(S(=O)(=O)NC3(C)CC3)cc3c2n2nc(C(F)F)nc2n3-c2nnc(C(F)F)s2)C[C@H](C)N1 [Compound 065S],1.82
3,C[C@H]1CN(c2cc(S(=O)(=O)NC3(C)CC3)cc3c2n2nc(C(F)(F)F)nc2n3-c2nnc(C(F)F)s2)C[C@H](C)N1 [Compound 065W],1.11
